Where two headings read alike, the source gives them in different places.
Legend:
K. pneumoniae CQ1947 = test: Broth microdilution MIC, glycosides with or without polymyxins; type: cell-based, Klebsiella pneumoniae; settings: for MIC: Klebsiella pneumoniae, CQ1947
E. coli ATCC 25922 = test: Broth microdilution MIC/MBC, glycosides with or without polymyxins; type: cell-based, Escherichia coli; settings: for MIC: Escherichia coli, ATCC25922
K. pneumoniae CQ4921 = test: as above; type: cell-based, Klebsiella pneumoniae; settings: for MIC: Klebsiella pneumoniae, CQ4921
P. aeruginosa CQ4924 = test: Broth microdilution MIC, glycosides with or without polymyxins; type: cell-based, Pseudomonas aeruginosa; settings: for MIC: Pseudomonas aeruginosa, CQ4924
[1] = alone, read-out: MICA (MIC of each compound individually)
[2] = combination with the lowest FICI
[3] = compound + colistin, lowest FICI

MIC of colistin in combination with the compound (K. pneumoniae CQ1947; Cpd conc. 0.4 μg/mL, strain F): 0.5 µg/mL
MIC of colistin in combination with the compound (K. pneumoniae CQ1947; Cpd conc. 0.8 μg/mL, strain F): 0.5 µg/mL
MIC of colistin in combination with the compound (K. pneumoniae CQ1947; Cpd conc. 3.125 μg/mL, strain F): 0.5 µg/mL
MIC of colistin in combination with the compound (K. pneumoniae CQ1947; Cpd conc. 6.25 μg/mL, strain F): 0.5 µg/mL
MIC of colistin in combination with the compound (K. pneumoniae CQ1947; Cpd conc. 12.5 μg/mL, strain F): 0.5 µg/mL
MIC of colistin in combination with the compound (K. pneumoniae CQ1947; Cpd conc. […], strain F): 0.5 µg/mL
MIC (K. pneumoniae CQ1947; agent alone, no adjuvant (polymyxin conc. 0), strain F, read-out: MIC): > 100 µg/mL
MIC (K. pneumoniae CQ1947; [1]): > 100 µg/mL
MIC of compound in combination with PMB (K. pneumoniae CQ1947; PMB 0.25 μg/mL, strain F): > 100 µg/mL
MIC of compound in combination with PMB (K. pneumoniae CQ1947; PMB 0.5 μg/mL, strain F): 1.6 µg/mL
MIC of compound in combination with colistin (K. pneumoniae CQ1947; colistin 0.06 μg/mL, strain F): > 100 µg/mL
MIC of compound in combination with colistin (K. pneumoniae CQ1947; colistin 0.125 μg/mL, strain F): > 100 µg/mL
MIC of compound in combination with colistin (K. pneumoniae CQ1947; colistin 0.25 μg/mL, strain F): > 100 µg/mL
MIC of compound in combination with colistin (K. pneumoniae CQ1947; colistin 0.5 μg/mL, strain F): ≤ 0.1 µg/mL
MICA(A + B) (MIC of compound in combination with colistin) (K. pneumoniae CQ1947; [2]): 0.4 µg/mL
MICB(A + B) (MIC of colistin in combination with compound) (K. pneumoniae CQ1947; [2]): 0.5 µg/mL
MIC of colistin in combination with the compound (E. coli ATCC 25922; Cpd conc. 0.4 μg/mL, strain A): 0.5 µg/mL
MIC of colistin in combination with the compound (E. coli ATCC 25922; Cpd conc. 0.8 μg/mL, strain A): 0.5 µg/mL
MIC of colistin in combination with the compound (E. coli ATCC 25922; Cpd conc. 3.125 μg/mL, strain A): 0.25 µg/mL
MIC of colistin in combination with the compound (E. coli ATCC 25922; Cpd conc. 6.25 μg/mL, strain A): 0.25 µg/mL
MIC of colistin in combination with the compound (E. coli ATCC 25922; Cpd conc. 12.5 μg/mL, strain A): 0.25 µg/mL
MIC of colistin in combination with the compound (E. coli ATCC 25922; Cpd conc. […], strain A): 0.5 µg/mL
MIC (E. coli ATCC 25922; agent alone, no adjuvant (polymyxin conc. 0), strain A, read-out: MIC): > 100 µg/mL
MIC (E. coli ATCC 25922; [1]): > 100 µg/mL
MIC of compound in combination with PMB (E. coli ATCC 25922; PMB 0.25 μg/mL, strain A): 3.1 µg/mL
MIC of compound in combination with PMB (E. coli ATCC 25922; PMB 0.5 μg/mL, strain A): ≤ 0.1 µg/mL
MIC of compound in combination with colistin (E. coli ATCC 25922; colistin 0.06 μg/mL, strain A): > 100 µg/mL
MIC of compound in combination with colistin (E. coli ATCC 25922; colistin 0.125 μg/mL, strain A): > 100 µg/mL
MIC of compound in combination with colistin (E. coli ATCC 25922; colistin 0.25 μg/mL, strain A): 3.1 µg/mL
MIC of compound in combination with colistin (E. coli ATCC 25922; colistin 0.5 μg/mL, strain A): ≤ 0.1 µg/mL
MICA(A + B) (MIC of compound in combination with colistin) (E. coli ATCC 25922; [2]): 3.125 µg/mL
MICB(A + B) (MIC of colistin in combination with compound) (E. coli ATCC 25922; [2]): 0.25 µg/mL
MIC of colistin in combination with the compound (K. pneumoniae CQ4921; Cpd conc. 0.4 μg/mL, strain C): 0.5 µg/mL
MIC of colistin in combination with the compound (K. pneumoniae CQ4921; Cpd conc. 0.8 μg/mL, strain C): 0.5 µg/mL
MIC of colistin in combination with the compound (K. pneumoniae CQ4921; Cpd conc. 3.125 μg/mL, strain C): 0.25 µg/mL
MIC of colistin in combination with the compound (K. pneumoniae CQ4921; Cpd conc. 6.25 μg/mL, strain C): 0.25 µg/mL
MIC of colistin in combination with the compound (K. pneumoniae CQ4921; Cpd conc. 12.5 μg/mL, strain C): 0.25 µg/mL
MIC of colistin in combination with the compound (K. pneumoniae CQ4921; Cpd conc. […], strain C): 0.5 µg/mL
MIC (K. pneumoniae CQ4921; agent alone, no adjuvant (polymyxin conc. 0), strain C, read-out: MIC): > 100 µg/mL
MIC (K. pneumoniae CQ4921; [1]): > 100 µg/mL
MIC of compound in combination with PMB (K. pneumoniae CQ4921; PMB 0.5 μg/mL, strain C): ≤ 0.1 µg/mL
MIC of compound in combination with colistin (K. pneumoniae CQ4921; colistin 0.06 μg/mL, strain C): > 100 µg/mL
MIC of compound in combination with colistin (K. pneumoniae CQ4921; colistin 0.125 μg/mL, strain C): > 100 µg/mL
MIC of compound in combination with colistin (K. pneumoniae CQ4921; colistin 0.25 μg/mL, strain C): 3.1 µg/mL
MIC of compound in combination with colistin (K. pneumoniae CQ4921; colistin 0.5 μg/mL, strain C): 0.2 µg/mL
MICA(A + B) (MIC of compound in combination with colistin) (K. pneumoniae CQ4921; [2]): 3.125 µg/mL
MICB(A + B) (MIC of colistin in combination with compound) (K. pneumoniae CQ4921; [2]): 0.25 µg/mL
MIC of colistin in combination with the compound (P. aeruginosa CQ4924; Cpd conc. 0.4 μg/mL, strain H): > 0.5 µg/mL
MIC of colistin in combination with the compound (P. aeruginosa CQ4924; Cpd conc. 0.8 μg/mL, strain H): > 0.5 µg/mL
MIC of colistin in combination with the compound (P. aeruginosa CQ4924; Cpd conc. 3.125 μg/mL, strain H): 0.5 µg/mL
MIC of colistin in combination with the compound (P. aeruginosa CQ4924; Cpd conc. 6.25 μg/mL, strain H): 0.5 µg/mL
MIC of colistin in combination with the compound (P. aeruginosa CQ4924; Cpd conc. 12.5 μg/mL, strain H): 0.5 µg/mL
MIC of colistin in combination with the compound (P. aeruginosa CQ4924; Cpd conc. […], strain H): > 0.5 µg/mL
MIC of compound in combination with PMB (P. aeruginosa CQ4924; PMB 0.25 μg/mL, strain H): > 100 µg/mL
MIC of compound in combination with PMB (P. aeruginosa CQ4924; PMB 0.5 μg/mL, strain H): > 100 µg/mL
MIC (P. aeruginosa CQ4924; agent alone, no adjuvant (polymyxin conc. 0), strain H, read-out: MIC): > 100 µg/mL
MIC (P. aeruginosa CQ4924; [1]): > 100 µg/mL
MIC of compound in combination with colistin (P. aeruginosa CQ4924; colistin 0.06 μg/mL, strain H): > 100 µg/mL
MIC of compound in combination with colistin (P. aeruginosa CQ4924; colistin 0.125 μg/mL, strain H): > 100 µg/mL
MIC of compound in combination with colistin (P. aeruginosa CQ4924; colistin 0.25 μg/mL, strain H): > 100 µg/mL
MIC of compound in combination with colistin (P. aeruginosa CQ4924; colistin 0.5 μg/mL, strain H): 3.1 µg/mL
MICA(A + B) (MIC of compound in combination with colistin) (P. aeruginosa CQ4924; [2]): 3.125 µg/mL
Structure (SMILES): CCCCCCCCCCCCO[C@H]1C[C@H](O)[C@@H](O)[C@H](C)O1 [Compound 3, dodecyl 2,6-dideoxy-α-L-arabino-hexopyranoside]
Interpretation (of FICI) (K. pneumoniae CQ1947; compound + colistin): Indifferent (1.0 to 4.0 were indifferent)
FICI (K. pneumoniae CQ1947; [3]): 1.002
Interpretation (of FICI) (E. coli ATCC 25922; compound + colistin): Additive (from 0.5 to 1.0 were additive)
FICI (E. coli ATCC 25922; [3]): 0.52
Interpretation (of FICI) (K. pneumoniae CQ4921; compound + colistin): Additive (from 0.5 to 1.0 were additive)
FICI (K. pneumoniae CQ4921; [3]): 0.52
